Measurements from patent US20020052295A1, “Diacyl derivatives of propylene diamine having herbicidal activity” (priority 1999, published 2002).

Legend:
Conditions in all cases: lowest tested rate giving 80% or greater inhibition, approx. 14 days after planting and treating, greenhouse
ABUTH = assay: Pre-emergence herbicidal activity on ABUTH (velvetleaf); assay type: in vivo, Abutilon theophrasti
Source text: (§1) All such uses, and the biological activity enabling such uses, are embraced by the term “herbicidal” herein. Tables 15 and 16 summarize results of tests conducted as described below to determine the pre-emergence herbicidal activity, in the form of a GR80 value, of illustrative compounds of this invention. […] Where herbicidal activity was evident but 80% inhibition was not achieved at the highest rate tested (typically 1000 g/ha), an asterisk (*) is shown in the following tables. Herbicidal activity evident in the form of symptoms of phytotoxicity, in the absence of at least 80% inhibition at any rate, is indicated in the tables by “phyto”. A blank cell in the following tables indicates no herbicidal or phytotoxic response at any rate tested.
(§2) The pre-emergence tests were conducted by the following procedure. Topsoil was sieved to pass through a 1.27 cm screen. Fertilizer was added to the topsoil and the mixture was then sterilized by heating. The topsoil mixture was placed in a pot and compacted to a depth of 1.0 to 1.25 cm from the top of the pot. Seeds of each of several monocotyledonous and dicotyledonous annual plant species were placed on top of the soil. Additional soil was subsequently placed over the seeds to level-fill the pot. A known amount of each test compound dissolved or suspended in an appropriate organic solvent was diluted with a 50:50 mix of acetone and water and applied to the surface of the soil. After treatment the plants were placed in a greenhouse with a 30/21° C. day/night temperature regime where they received 0.64 cm of overhead irrigation. All subsequent watering consisted of a light overhead mist and/or subirrigation as needed for germination and growth.
(§3) Approximately 14 days after planting and treating, the plants were observed and herbicidal efficacy recorded as percent inhibition by comparison with untreated plants.
(§4) The plant species usually regarded as weeds which were utilized in the tests are identified in the tables below according to the following legend, in which “d” indicates a dicotyledonous species and “m” a monocotyledonous species. All monocotyledonous species included in the tests herein are grasses.

SOLNI = assay: Pre-emergence herbicidal activity on SOLNI (black nightshade); assay type: in vivo, Solanum nigrum
Source text: as §1, §2, §3, §4

AMARE = assay: Pre-emergence herbicidal activity on AMARE (redroot pigweed); assay type: in vivo, Amaranthus retroflexus
Source text: as §1, §2, §3, §4

DATST = assay: Pre-emergence herbicidal activity on DATST (jimsonweed); assay type: in vivo, Datura stramonium
Source text: as §1, §2, §3, §4

CHEAL = assay: Pre-emergence herbicidal activity on CHEAL (common lambsquarters); assay type: in vivo, Chenopodium album
Source text: as §1, §2, §3, §4

POROL = assay: Pre-emergence herbicidal activity on POROL (common purslane); assay type: in vivo, Portulaca oleracea
Source text: as §1, §2, §3, §4

CIRAR = assay: Pre-emergence herbicidal activity on CIRAR (canada thistle, seedling); assay type: in vivo, Cirsium arvense
Source text: as §1, §2, §3, §4

ECHCG = assay: Pre-emergence herbicidal activity on ECHCG (barnyardgrass); assay type: in vivo, Echinochloa crus-galli
Source text: as §1, §2, §3, §4

PANMI = assay: Pre-emergence herbicidal activity on PANMI (wild proso millet); assay type: in vivo, Panicum miliaceum
Source text: as §1, §2, §3, §4

SORHA = assay: Pre-emergence herbicidal activity on SORHA (johnsongrass, seedling); assay type: in vivo, Sorghum halepense
Source text: as §1, §2, §3, §4

SETFA = assay: Pre-emergence herbicidal activity on SETFA (giant foxtail); assay type: in vivo, Setaria faberi
Source text: as §1, §2, §3, §4

PANDI = assay: Pre-emergence herbicidal activity on PANDI (fall panicum); assay type: in vivo, Panicum dichotomiflorum
Source text: as §1, §2, §3, §4

BRAPP = assay: Pre-emergence herbicidal activity on BRAPP (broadleaf signalgrass); assay type: in vivo, Brachiaria platyphylla
Source text: as §1, §2, §3, §4

DIGSA = assay: Pre-emergence herbicidal activity on DIGSA (large crabgrass); assay type: in vivo, Digitaria sanguinalis
Source text: as §1, §2, §3, §4

CONAR = assay: Pre-emergence herbicidal activity on CONAR (field bindweed); assay type: in vivo, Convolvulus arvensis
Source text: as §1, §2, §3, §4

`CC(CNC(=O)c1cccc(C(F)(F)F)c1)NC(=O)c1cc(C(F)(F)F)ccc1Cl` (stereo not drawn) [Example 9] was tested, and the “Pre-emergence activity (GR80) on ABUTH” value (ABUTH) was “phyto”, the “Pre-emergence activity (GR80) on SOLNI” value (SOLNI) was 500 g/ha and the “Pre-emergence activity (GR80) on AMARE” value (AMARE) was 125 g/ha. For the same compound, the “Pre-emergence activity (GR80) on DATST” value (DATST) was 500 g/ha, the “Pre-emergence activity (GR80) on CHEAL” value (CHEAL) was 500 g/ha and the “Pre-emergence activity (GR80) on PORAL” value (POROL) was 125 g/ha. For the same compound, the “Pre-emergence activity (GR80) on CIRAR” value (CIRAR) was 750 g/ha, the “Pre-emergence activity (GR80) on ECHCG” value (ECHCG) was “phyto” and the “Pre-emergence activity (GR80) on PANMI” value (PANMI) was “phyto”. The “Pre-emergence activity (GR80) on SORHA” value (SORHA) was “* (Where herbicidal activity was evident but 80% inhibition was not achieved at the highest rate tested (typically 1000 g/ha), an asterisk (*) is shown)”, the “Pre-emergence activity (GR80) on SETFA” value (SETFA) was 1000 g/ha and the “Pre-emergence activity (GR80) on PANDI” value (PANDI) was 500 g/ha. The “Pre-emergence activity (GR80) on BRAPP” value (BRAPP) was “phyto” and the “Pre-emergence activity (GR80) on DIGSA” value (DIGSA) was 500 g/ha.

`O=C(NCC(CF)NC(=O)c1cccc(C(F)(F)F)c1)c1cccc(C(F)(F)F)c1` (stereo not drawn) [Example 10, N,N′-(3-fluoro-1,2-propanediylbis)-3-(trifluoromethyl) benzamide] was tested, and the “Pre-emergence activity (GR80) on AMARE” value (AMARE) was 500 g/ha, the “Pre-emergence activity (GR80) on DATST” value (DATST) was “phyto” and the “Pre-emergence activity (GR80) on CHEAL” value (CHEAL) was 750 g/ha. The “Pre-emergence activity (GR80) on PORAL” value (POROL) was 1000 g/ha, the “Pre-emergence activity (GR80) on CIRAR” value (CIRAR) was “phyto” and the “Pre-emergence activity (GR80) on PANMI” value (PANMI) was “phyto”. The “Pre-emergence activity (GR80) on SETFA” value (SETFA) was “phyto”, the “Pre-emergence activity (GR80) on PANDI” value (PANDI) was 1000 g/ha and the “Pre-emergence activity (GR80) on DIGSA” value (DIGSA) was “phyto”.

With `Cc1c(C(=O)NC(C)CNC(=O)c2cccc(C(F)(F)F)c2)cccc1C(F)(F)F` (stereo not drawn) [Example 16] the “Pre-emergence activity (GR80) on ABUTH” value (ABUTH) was “* (Where herbicidal activity was evident but 80% inhibition was not achieved at the highest rate tested (typically 1000 g/ha), an asterisk (*) is shown)”, the “Pre-emergence activity (GR80) on SOLNI” value (SOLNI) was 500 g/ha and the “Pre-emergence activity (GR80) on AMARE” value (AMARE) was 250 g/ha. For the same compound, the “Pre-emergence activity (GR80) on DATST” value (DATST) was 1000 g/ha, the “Pre-emergence activity (GR80) on CHEAL” value (CHEAL) was 1000 g/ha and the “Pre-emergence activity (GR80) on CIRAR” value (CIRAR) was 750 g/ha. For the same compound, the “Pre-emergence activity (GR80) on PANMI” value (PANMI) was 1000 g/ha, the “Pre-emergence activity (GR80) on SETFA” value (SETFA) was 500 g/ha and the “Pre-emergence activity (GR80) on PANDI” value (PANDI) was “* (Where herbicidal activity was evident but 80% inhibition was not achieved at the highest rate tested (typically 1000 g/ha), an asterisk (*) is shown)”. The “Pre-emergence activity (GR80) on DIGSA” value (DIGSA) was 750 g/ha.

`CCOc1c(F)cccc1C(=O)N[C@H](C)CNC(=O)c1cccc(C(F)(F)F)c1` [Example 41, R-2-ethoxy-3-fluoro-N-[1-methyl-2-(3-trifluoromethyl)phenylcarbonylamino]ethylbenzamide] was tested, and the “Pre-emergence activity (GR80) on SOLNI” value (SOLNI) was “phyto”, the “Pre-emergence activity (GR80) on AMARE” value (AMARE) was 250 g/ha and the “Pre-emergence activity (GR80) on DATST” value (DATST) was 1000 g/ha. The “Pre-emergence activity (GR80) on CHEAL” value (CHEAL) was 750 g/ha, the “Pre-emergence activity (GR80) on PORAL” value (POROL) was 500 g/ha and the “Pre-emergence activity (GR80) on PANMI” value (PANMI) was “phyto”. The “Pre-emergence activity (GR80) on SORHA” value (SORHA) was “phyto”, the “Pre-emergence activity (GR80) on SETFA” value (SETFA) was 1000 g/ha and the “Pre-emergence activity (GR80) on PANDI” value (PANDI) was 750 g/ha.

For `CC(CNC(=O)c1cccc(C(F)(F)F)c1)NC(=O)c1cccc(Cl)c1` (stereo not drawn) [Example 43], the “Pre-emergence activity (GR80) on SOLNI” value (SOLNI) was “phyto”, the “Pre-emergence activity (GR80) on AMARE” value (AMARE) was 250 g/ha and the “Pre-emergence activity (GR80) on DATST” value (DATST) was “phyto”. The “Pre-emergence activity (GR80) on CHEAL” value (CHEAL) was 500 g/ha, the “Pre-emergence activity (GR80) on PORAL” value (POROL) was 500 g/ha and the “Pre-emergence activity (GR80) on CIRAR” value (CIRAR) was “* (Where herbicidal activity was evident but 80% inhibition was not achieved at the highest rate tested (typically 1000 g/ha), an asterisk (*) is shown)”. For the same compound, the “Pre-emergence activity (GR80) on PANMI” value (PANMI) was “phyto”, the “Pre-emergence activity (GR80) on SORHA” value (SORHA) was “phyto” and the “Pre-emergence activity (GR80) on SETFA” value (SETFA) was “phyto”. For the same compound, the “Pre-emergence activity (GR80) on PANDI” value (PANDI) was “phyto”, the “Pre-emergence activity (GR80) on BRAPP” value (BRAPP) was “phyto” and the “Pre-emergence activity (GR80) on DIGSA” value (DIGSA) was 750 g/ha.

`CC(CNC(=O)c1cccc(F)c1)NC(=O)c1cccc(C(F)(F)F)c1F` (stereo not drawn) [Example 142] was tested, and the “Pre-emergence activity (GR80) on ABUTH” value (ABUTH) was 1000 g/ha, the “Pre-emergence activity (GR80) on SOLNI” value (SOLNI) was 750 g/ha and the “Pre-emergence activity (GR80) on AMARE” value (AMARE) was 125 g/ha. The “Pre-emergence activity (GR80) on DATST” value (DATST) was 750 g/ha, the “Pre-emergence activity (GR80) on CHEAL” value (CHEAL) was 500 g/ha and the “Pre-emergence activity (GR80) on PORAL” value (POROL) was 125 g/ha. For the same compound, the “Pre-emergence activity (GR80) on CIRAR” value (CIRAR) was 64 g/ha, the “Pre-emergence activity (GR80) on PANMI” value (PANMI) was 1000 g/ha and the “Pre-emergence activity (GR80) on SETFA” value (SETFA) was 125 g/ha. The “Pre-emergence activity (GR80) on PANDI” value (PANDI) was 500 g/ha, the “Pre-emergence activity (GR80) on BRAPP” value (BRAPP) was 750 g/ha and the “Pre-emergence activity (GR80) on DIGSA” value (DIGSA) was 250 g/ha.

In the case of `CC(CNC(=O)c1cccc(Br)c1)NC(=O)c1cccc(C(F)(F)F)c1F` (stereo not drawn) [Example 152], the “Pre-emergence activity (GR80) on ABUTH” value (ABUTH) is reported as 750 g/ha, the “Pre-emergence activity (GR80) on SOLNI” value (SOLNI) is reported as 500 g/ha and the “Pre-emergence activity (GR80) on AMARE” value (AMARE) is reported as 250 g/ha. For the same compound, the “Pre-emergence activity (GR80) on DATST” value (DATST) was 750 g/ha, the “Pre-emergence activity (GR80) on CHEAL” value (CHEAL) was 250 g/ha and the “Pre-emergence activity (GR80) on PORAL” value (POROL) was 125 g/ha. For the same compound, the “Pre-emergence activity (GR80) on CIRAR” value (CIRAR) was 250 g/ha, the “Pre-emergence activity (GR80) on ECHCG” value (ECHCG) was 750 g/ha and the “Pre-emergence activity (GR80) on DIGSA” value (DIGSA) was 500 g/ha.

With `CC(CNC(=O)c1cccc(Cl)c1F)NC(=O)c1cccc(Cl)c1F` (stereo not drawn) [Example 181] the “Pre-emergence activity (GR80) on ABUTH” value (ABUTH) was “phyto”, the “Pre-emergence activity (GR80) on SOLNI” value (SOLNI) was “* (Where herbicidal activity was evident but 80% inhibition was not achieved at the highest rate tested (typically 1000 g/ha), an asterisk (*) is shown)” and the “Pre-emergence activity (GR80) on AMARE” value (AMARE) was 500 g/ha. For the same compound, the “Pre-emergence activity (GR80) on DATST” value (DATST) was “* (Where herbicidal activity was evident but 80% inhibition was not achieved at the highest rate tested (typically 1000 g/ha), an asterisk (*) is shown)”, the “Pre-emergence activity (GR80) on CHEAL” value (CHEAL) was 750 g/ha and the “Pre-emergence activity (GR80) on CONAR” value (CONAR) was “phyto”. For the same compound, the “Pre-emergence activity (GR80) on CIRAR” value (CIRAR) was “* (Where herbicidal activity was evident but 80% inhibition was not achieved at the highest rate tested (typically 1000 g/ha), an asterisk (*) is shown)”, the “Pre-emergence activity (GR80) on SETFA” value (SETFA) was “phyto” and the “Pre-emergence activity (GR80) on PANDI” value (PANDI) was “phyto”. The “Pre-emergence activity (GR80) on DIGSA” value (DIGSA) was 500 g/ha.

`CC(CNC(=O)c1cccc(C(F)(F)F)c1)NC(=O)c1cc(C(C)(C)C)nn1C` (stereo not drawn) [Example 262] was tested, and the “Pre-emergence activity (GR80) on CONAR” value (CONAR) was “phyto” and the “Pre-emergence activity (GR80) on DIGSA” value (DIGSA) was “phyto”.
